Each block holds one compound with its values, some of them ahead of it.
Experiments:
Experiment in all cases: radiometric filter-binding kinase assay
MKNK1 (human) = MKNK1 (human) (UniProt Q9BUB5)
PAK4 (human) = PAK4 (human) (UniProt O96013)
NUAK1 (human) = NUAK1 (human) (UniProt O60285)
CaMK1 (human) = CaMK1 (human) (UniProt Q14012)
PRKAA1 or PRKAA2 (rat) = conditions: accession and sequence are those of the human protein
MARK3 (human) = MARK3 (human) (UniProt P27448)
SRC (human) = SRC (human) (UniProt P12931)
NTRK1 (human) = NTRK1 (human) (UniProt P04629)
IGF1R (human) = IGF1R (human) (UniProt P08069)
RIPK2 (human) = RIPK2 (human) (UniProt O43353)
MAPK13 (human) = MAPK13 (human) (UniProt O15264)
CHEK1 (human) = CHEK1 (human) (UniProt O14757)
PRKACA (human) = PRKACA (human) (UniProt P17612)
PIM2 (human) = PIM2 (human) (UniProt Q9P1W9)
MINK1 (human) = MINK1 (human) (UniProt Q8N4C8)
LCK (mouse) = conditions: accession and sequence are those of the human protein
MAP3K11 (human) = MAP3K11 (human) (UniProt Q16584)
INSRR (human) = INSRR (human) (UniProt P14616)
DYRK1A (human) = DYRK1A (human) (UniProt Q13627)
SYK (human) = SYK (human) (UniProt P43405)
JAK2 JH1 JH2 (human) = JAK2 JH1 JH2 (human) (UniProt O60674)
MAPK10 (human) = MAPK10 (human) (UniProt P53779)
MAPK10 (human), sequence (P53779 whole entry, looked up): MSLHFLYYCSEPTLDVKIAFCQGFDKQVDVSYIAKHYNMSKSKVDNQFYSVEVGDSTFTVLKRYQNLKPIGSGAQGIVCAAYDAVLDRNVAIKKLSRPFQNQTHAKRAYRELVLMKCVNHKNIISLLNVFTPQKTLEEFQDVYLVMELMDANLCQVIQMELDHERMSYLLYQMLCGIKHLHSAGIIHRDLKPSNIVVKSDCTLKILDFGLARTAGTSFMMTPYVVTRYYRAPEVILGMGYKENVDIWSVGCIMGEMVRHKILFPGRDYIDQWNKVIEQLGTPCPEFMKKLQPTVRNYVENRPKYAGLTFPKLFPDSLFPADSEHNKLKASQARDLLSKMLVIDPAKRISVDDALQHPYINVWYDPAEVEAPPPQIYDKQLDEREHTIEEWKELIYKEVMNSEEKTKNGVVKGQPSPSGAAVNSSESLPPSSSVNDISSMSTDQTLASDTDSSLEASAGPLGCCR

AURKB (human) = AURKB (human) (UniProt Q96GD4)
AURKB (human), sequence (Q96GD4 whole entry, looked up): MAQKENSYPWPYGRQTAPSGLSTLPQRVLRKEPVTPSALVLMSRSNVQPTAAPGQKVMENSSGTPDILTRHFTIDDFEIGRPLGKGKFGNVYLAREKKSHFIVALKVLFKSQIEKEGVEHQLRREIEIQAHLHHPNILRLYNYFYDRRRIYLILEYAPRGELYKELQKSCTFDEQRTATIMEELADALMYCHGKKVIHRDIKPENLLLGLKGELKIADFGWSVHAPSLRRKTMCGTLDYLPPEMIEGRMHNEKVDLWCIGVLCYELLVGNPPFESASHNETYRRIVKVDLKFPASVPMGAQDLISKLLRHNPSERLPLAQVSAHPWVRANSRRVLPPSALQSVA

PRKCZ (human) = PRKCZ (human) (UniProt Q05513)
CDK2 CCNA2 (human) = CDK2 CCNA2 (human) (UniProt P20248+P24941)
MAP3K9 (human) = MAP3K9 (human) (UniProt P80192)
MST4 (human) = MST4 (human) (UniProt Q9P289)
YES1 (human) = YES1 (human) (UniProt P07947)
YES1 (human), sequence (P07947 whole entry, looked up): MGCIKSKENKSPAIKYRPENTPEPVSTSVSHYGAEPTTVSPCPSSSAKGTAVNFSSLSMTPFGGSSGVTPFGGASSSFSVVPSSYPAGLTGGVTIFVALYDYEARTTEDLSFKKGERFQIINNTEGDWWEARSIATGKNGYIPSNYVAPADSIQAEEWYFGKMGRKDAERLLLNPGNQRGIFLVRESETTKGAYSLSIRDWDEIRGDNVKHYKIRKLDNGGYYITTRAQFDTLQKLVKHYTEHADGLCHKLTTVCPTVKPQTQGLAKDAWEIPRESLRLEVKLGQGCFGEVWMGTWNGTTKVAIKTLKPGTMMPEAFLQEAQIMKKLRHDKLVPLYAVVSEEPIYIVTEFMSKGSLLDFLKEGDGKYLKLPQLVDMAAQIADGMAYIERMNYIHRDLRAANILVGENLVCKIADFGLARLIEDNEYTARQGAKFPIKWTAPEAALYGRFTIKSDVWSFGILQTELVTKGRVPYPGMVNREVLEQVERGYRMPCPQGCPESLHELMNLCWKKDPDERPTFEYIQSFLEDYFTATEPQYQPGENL

EPHB3 (human) = EPHB3 (human) (UniProt P54753)
EPHB3 (human), sequence (P54753 whole entry, looked up): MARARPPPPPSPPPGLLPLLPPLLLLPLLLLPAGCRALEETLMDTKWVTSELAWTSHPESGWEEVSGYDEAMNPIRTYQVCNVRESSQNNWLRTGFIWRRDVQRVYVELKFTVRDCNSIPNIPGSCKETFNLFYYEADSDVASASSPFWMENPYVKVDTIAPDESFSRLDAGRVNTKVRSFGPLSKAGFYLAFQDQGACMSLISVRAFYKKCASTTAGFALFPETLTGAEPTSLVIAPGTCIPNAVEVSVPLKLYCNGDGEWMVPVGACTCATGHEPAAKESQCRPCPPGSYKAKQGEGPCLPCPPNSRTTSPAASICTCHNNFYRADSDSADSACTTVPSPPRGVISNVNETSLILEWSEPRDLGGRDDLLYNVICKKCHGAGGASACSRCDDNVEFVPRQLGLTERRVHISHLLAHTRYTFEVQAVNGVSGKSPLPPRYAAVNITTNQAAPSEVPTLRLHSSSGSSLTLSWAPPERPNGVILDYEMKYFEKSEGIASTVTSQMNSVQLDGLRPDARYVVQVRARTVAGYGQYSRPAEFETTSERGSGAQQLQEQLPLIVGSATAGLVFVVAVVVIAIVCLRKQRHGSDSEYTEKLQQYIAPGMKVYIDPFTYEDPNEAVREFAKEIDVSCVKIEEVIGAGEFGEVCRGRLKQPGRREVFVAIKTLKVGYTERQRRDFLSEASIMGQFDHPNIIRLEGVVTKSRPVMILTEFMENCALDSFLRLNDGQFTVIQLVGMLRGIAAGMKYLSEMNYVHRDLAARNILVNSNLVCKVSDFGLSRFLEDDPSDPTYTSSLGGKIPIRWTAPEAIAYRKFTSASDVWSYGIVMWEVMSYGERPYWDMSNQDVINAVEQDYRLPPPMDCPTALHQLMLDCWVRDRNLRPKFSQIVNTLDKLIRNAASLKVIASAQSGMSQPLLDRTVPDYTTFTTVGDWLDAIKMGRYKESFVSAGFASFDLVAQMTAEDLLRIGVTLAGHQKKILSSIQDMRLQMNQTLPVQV

MAP2K1 (human) = MAP2K1 (human) (UniProt Q02750)
MAP2K1 (human), sequence (Q02750 whole entry, looked up): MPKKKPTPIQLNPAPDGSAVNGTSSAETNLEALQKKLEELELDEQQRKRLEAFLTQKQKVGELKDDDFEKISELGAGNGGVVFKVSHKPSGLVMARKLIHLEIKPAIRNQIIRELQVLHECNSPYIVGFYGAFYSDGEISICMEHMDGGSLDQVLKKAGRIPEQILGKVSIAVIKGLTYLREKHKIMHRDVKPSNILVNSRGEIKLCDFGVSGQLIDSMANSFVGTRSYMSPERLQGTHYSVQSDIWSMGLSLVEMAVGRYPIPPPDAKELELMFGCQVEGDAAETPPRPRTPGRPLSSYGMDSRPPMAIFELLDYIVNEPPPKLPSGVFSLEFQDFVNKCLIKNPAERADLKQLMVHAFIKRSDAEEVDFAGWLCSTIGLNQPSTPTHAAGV

[1] = system: AKT2 (human), P31751 [S474D]
MARK4 (human) = MARK4 (human) (UniProt Q96L34)
CAMKK2 (human) = CAMKK2 (human) (UniProt Q96RR4)
CSNK2A1 (human) = CSNK2A1 (human) (UniProt P68400)
PHKG1 (human) = PHKG1 (human) (UniProt Q16816)
INSR (human) = INSR (human) (UniProt P06213)

PAK4 (human), sequence (O96013 whole entry, looked up): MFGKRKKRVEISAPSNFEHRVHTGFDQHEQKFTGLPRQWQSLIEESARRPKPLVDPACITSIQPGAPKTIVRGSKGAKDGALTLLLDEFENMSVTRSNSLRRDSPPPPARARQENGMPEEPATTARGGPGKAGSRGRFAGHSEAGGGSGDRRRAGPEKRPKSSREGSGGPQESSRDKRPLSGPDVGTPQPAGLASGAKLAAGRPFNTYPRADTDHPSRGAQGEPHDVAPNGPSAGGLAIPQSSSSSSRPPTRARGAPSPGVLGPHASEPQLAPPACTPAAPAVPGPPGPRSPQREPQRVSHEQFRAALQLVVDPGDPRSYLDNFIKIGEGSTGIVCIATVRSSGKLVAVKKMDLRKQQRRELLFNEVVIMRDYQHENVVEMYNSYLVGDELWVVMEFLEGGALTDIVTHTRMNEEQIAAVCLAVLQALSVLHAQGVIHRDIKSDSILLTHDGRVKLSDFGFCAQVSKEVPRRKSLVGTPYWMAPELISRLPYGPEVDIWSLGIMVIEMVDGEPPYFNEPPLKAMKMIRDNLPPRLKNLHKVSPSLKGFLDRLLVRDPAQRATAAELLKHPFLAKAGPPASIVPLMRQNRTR
CaMK1 (human), sequence (Q14012 whole entry, looked up): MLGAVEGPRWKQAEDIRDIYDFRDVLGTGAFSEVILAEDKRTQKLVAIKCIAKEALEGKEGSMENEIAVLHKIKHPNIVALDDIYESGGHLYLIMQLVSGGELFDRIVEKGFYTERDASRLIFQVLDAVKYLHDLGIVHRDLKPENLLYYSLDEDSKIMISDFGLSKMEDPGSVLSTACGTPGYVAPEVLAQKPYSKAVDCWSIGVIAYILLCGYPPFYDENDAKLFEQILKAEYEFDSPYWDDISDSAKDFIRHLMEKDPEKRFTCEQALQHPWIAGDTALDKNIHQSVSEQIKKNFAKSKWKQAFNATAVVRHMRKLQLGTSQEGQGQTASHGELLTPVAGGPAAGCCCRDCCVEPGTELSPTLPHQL
MKNK1 (human), sequence (Q9BUB5 whole entry, looked up): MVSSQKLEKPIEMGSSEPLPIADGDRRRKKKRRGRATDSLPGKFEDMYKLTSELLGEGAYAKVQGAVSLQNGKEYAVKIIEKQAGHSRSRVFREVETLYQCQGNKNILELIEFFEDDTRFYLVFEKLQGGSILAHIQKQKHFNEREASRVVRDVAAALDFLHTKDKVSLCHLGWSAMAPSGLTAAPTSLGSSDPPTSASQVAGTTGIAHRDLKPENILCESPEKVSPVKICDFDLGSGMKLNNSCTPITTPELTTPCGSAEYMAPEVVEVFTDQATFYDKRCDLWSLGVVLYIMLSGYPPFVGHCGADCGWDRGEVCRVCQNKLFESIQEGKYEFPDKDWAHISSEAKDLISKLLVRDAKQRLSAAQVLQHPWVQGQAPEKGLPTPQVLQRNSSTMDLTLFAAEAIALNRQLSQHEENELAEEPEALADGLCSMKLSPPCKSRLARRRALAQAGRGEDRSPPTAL
NUAK1 (human), sequence (O60285 whole entry, looked up): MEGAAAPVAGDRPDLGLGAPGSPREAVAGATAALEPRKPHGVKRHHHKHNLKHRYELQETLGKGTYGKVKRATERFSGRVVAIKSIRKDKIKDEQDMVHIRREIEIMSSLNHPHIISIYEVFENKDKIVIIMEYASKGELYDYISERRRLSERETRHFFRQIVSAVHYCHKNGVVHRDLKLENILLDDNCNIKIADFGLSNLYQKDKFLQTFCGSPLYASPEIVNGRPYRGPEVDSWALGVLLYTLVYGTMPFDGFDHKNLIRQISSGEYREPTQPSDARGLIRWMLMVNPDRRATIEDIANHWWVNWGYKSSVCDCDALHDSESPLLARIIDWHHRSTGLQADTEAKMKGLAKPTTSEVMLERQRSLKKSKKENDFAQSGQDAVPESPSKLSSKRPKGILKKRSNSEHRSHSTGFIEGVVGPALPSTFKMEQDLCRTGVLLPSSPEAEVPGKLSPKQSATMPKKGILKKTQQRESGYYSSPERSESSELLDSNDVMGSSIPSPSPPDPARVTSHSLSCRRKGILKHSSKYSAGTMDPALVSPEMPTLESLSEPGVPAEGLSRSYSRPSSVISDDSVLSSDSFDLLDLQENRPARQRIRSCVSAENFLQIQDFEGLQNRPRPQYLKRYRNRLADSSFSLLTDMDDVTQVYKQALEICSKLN

residual activity (MKNK1 (human); compound 0.1 µM): 59%
residual activity (MKNK1 (human); compound 1.0 µM): 17%
residual activity (PAK4 (human); compound 0.1 µM): 29%
residual activity (PAK4 (human); compound 1.0 µM): 9%
residual activity (NUAK1 (human); compound 0.1 µM): 16%
residual activity (NUAK1 (human); compound 1.0 µM): 13%
residual activity (CaMK1 (human); compound 0.1 µM): 67%
residual activity (CaMK1 (human); compound 1.0 µM): 26%
residual activity (PRKAA1 or PRKAA2 (rat); compound 0.1 µM): 25%
residual activity (PRKAA1 or PRKAA2 (rat); compound 1.0 µM): 22%
residual activity (MARK3 (human); compound 0.1 µM): 41%
residual activity (MARK3 (human); compound 1.0 µM): 16%
residual activity (SRC (human); compound 0.1 µM): 7%
residual activity (SRC (human); compound 1.0 µM): 3%
residual activity (NTRK1 (human); compound 0.1 µM): 32%
residual activity (NTRK1 (human); compound 1.0 µM): 11%
residual activity (IGF1R (human); compound 0.1 µM): 104%
residual activity (IGF1R (human); compound 1.0 µM): 6%
residual activity (RIPK2 (human); compound 0.1 µM): 28%
residual activity (RIPK2 (human); compound 1.0 µM): 14%
residual activity (MAPK13 (human); compound 1.0 µM): 68%
residual activity (CHEK1 (human); compound 0.1 µM): 72%
residual activity (CHEK1 (human); compound 1.0 µM): 20%
residual activity (PRKACA (human); compound 0.1 µM): 78%
residual activity (PRKACA (human); compound 1.0 µM): 26%
residual activity (PIM2 (human); compound 0.1 µM): 108%
residual activity (PIM2 (human); compound 1.0 µM): 106%
residual activity (MINK1 (human); compound 0.1 µM): 104%
residual activity (MINK1 (human); compound 1.0 µM): 57%
residual activity (LCK (mouse); compound 0.1 µM): 10%
residual activity (LCK (mouse); compound 1.0 µM): 4%
residual activity (MAP3K11 (human); compound 0.1 µM): 15%
residual activity (MAP3K11 (human); compound 1.0 µM): 8%
residual activity (INSRR (human); compound 0.1 µM): 78%
residual activity (INSRR (human); compound 1.0 µM): 35%
residual activity (DYRK1A (human); compound 0.1 µM): 57%
residual activity (DYRK1A (human); compound 1.0 µM): 12%
residual activity (SYK (human); compound 0.1 µM): 58%
residual activity (SYK (human); compound 1.0 µM): 13%
residual activity (JAK2 JH1 JH2 (human); compound 0.1 µM): 4%
residual activity (JAK2 JH1 JH2 (human); compound 1.0 µM): 3%
residual activity (MAPK10 (human); compound 0.1 µM): 65%
residual activity (MAPK10 (human); compound 1.0 µM): 39%
residual activity (AURKB (human); compound 0.1 µM): 36%
residual activity (AURKB (human); compound 1.0 µM): 11%
residual activity (PRKCZ (human); compound 1.0 µM): 78%
residual activity (CDK2 CCNA2 (human); compound 0.1 µM): 34%
residual activity (CDK2 CCNA2 (human); compound 1.0 µM): 7%
residual activity (MAP3K9 (human); compound 0.1 µM): 7%
residual activity (MAP3K9 (human); compound 1.0 µM): 6%
residual activity (MST4 (human); compound 0.1 µM): 90%
residual activity (MST4 (human); compound 1.0 µM): 67%
residual activity (YES1 (human); compound 0.1 µM): 16%
residual activity (YES1 (human); compound 1.0 µM): 7%
residual activity (EPHB3 (human); compound 0.1 µM): 86%
residual activity (EPHB3 (human); compound 1.0 µM): 16%
residual activity (MAP2K1 (human); compound 0.1 µM): 40%
residual activity (MAP2K1 (human); compound 1.0 µM): 13%
residual activity ([1]; compound 0.1 µM): 88%
residual activity ([1]; compound 1.0 µM): 77%
residual activity (MARK4 (human); compound 1.0 µM): 24%
residual activity (CAMKK2 (human); compound 0.1 µM): 58%
residual activity (CAMKK2 (human); compound 1.0 µM): 28%
residual activity (CSNK2A1 (human); compound 0.1 µM): 33%
residual activity (CSNK2A1 (human); compound 1.0 µM): 6%
residual activity (PHKG1 (human); compound 0.1 µM): 56%
residual activity (PHKG1 (human); compound 1.0 µM): 12%
residual activity (INSR (human); compound 0.1 µM): 79%
residual activity (INSR (human); compound 1.0 µM): 21%
SMILES: COc1ccc(-n2ncc3cnc(Nc4cc(OC)c(OC)c(OCCCN5CCN(C)CC5)c4)nc32)cc1

residual activity (MKNK1 (human); compound 1.0 µM): 92%
residual activity (MKNK1 (human); compound 10.0 µM): 45%
residual activity (PAK4 (human); compound 1.0 µM): 92%
residual activity (PAK4 (human); compound 10.0 µM): 32%
residual activity (NUAK1 (human); compound 1.0 µM): 13%
residual activity (NUAK1 (human); compound 10.0 µM): 2%
residual activity (CaMK1 (human); compound 1.0 µM): 74%
residual activity (CaMK1 (human); compound 10.0 µM): 27%
residual activity (PRKAA1 or PRKAA2 (rat); compound 1.0 µM): 75%
residual activity (PRKAA1 or PRKAA2 (rat); compound 10.0 µM): 56%
residual activity (MARK3 (human); compound 1.0 µM): 80%
residual activity (MARK3 (human); compound 10.0 µM): 41%
residual activity (SRC (human); compound 1.0 µM): 87%
residual activity (SRC (human); compound 10.0 µM): 83%
residual activity (NTRK1 (human); compound 1.0 µM): 81%
residual activity (NTRK1 (human); compound 10.0 µM): 63%
residual activity (IGF1R (human); compound 1.0 µM): 32%
residual activity (IGF1R (human); compound 10.0 µM): 38%
residual activity (RIPK2 (human); compound 1.0 µM): 86%
residual activity (RIPK2 (human); compound 10.0 µM): 74%
residual activity (MAPK13 (human); compound 1.0 µM): 102%
residual activity (MAPK13 (human); compound 10.0 µM): 98%
residual activity (CHEK1 (human); compound 1.0 µM): 44%
residual activity (CHEK1 (human); compound 10.0 µM): 12%
residual activity (PRKACA (human); compound 1.0 µM): 96%
residual activity (PIM2 (human); compound 10.0 µM): 93%
residual activity (MINK1 (human); compound 1.0 µM): 115%
residual activity (MINK1 (human); compound 10.0 µM): 93%
residual activity (LCK (mouse); compound 1.0 µM): 108%
residual activity (LCK (mouse); compound 10.0 µM): 101%
residual activity (MAP3K11 (human); compound 1.0 µM): 23%
residual activity (MAP3K11 (human); compound 10.0 µM): 5%
residual activity (INSRR (human); compound 1.0 µM): 90%
residual activity (INSRR (human); compound 10.0 µM): 67%
residual activity (DYRK1A (human); compound 1.0 µM): 85%
residual activity (DYRK1A (human); compound 10.0 µM): 48%
residual activity (SYK (human); compound 1.0 µM): 70%
residual activity (SYK (human); compound 10.0 µM): 33%
residual activity (JAK2 JH1 JH2 (human); compound 1.0 µM): 72%
residual activity (JAK2 JH1 JH2 (human); compound 10.0 µM): 35%
residual activity (MAPK10 (human); compound 1.0 µM): 84%
residual activity (MAPK10 (human); compound 10.0 µM): 50%
residual activity (AURKB (human); compound 1.0 µM): 55%
residual activity (AURKB (human); compound 10.0 µM): 18%
residual activity (PRKCZ (human); compound 1.0 µM): 99%
residual activity (PRKCZ (human); compound 10.0 µM): 83%
residual activity (CDK2 CCNA2 (human); compound 1.0 µM): 102%
residual activity (CDK2 CCNA2 (human); compound 10.0 µM): 79%
residual activity (MAP3K9 (human); compound 1.0 µM): 25%
residual activity (MAP3K9 (human); compound 10.0 µM): 3%
residual activity (MST4 (human); compound 1.0 µM): 86%
residual activity (MST4 (human); compound 10.0 µM): 74%
residual activity (YES1 (human); compound 1.0 µM): 104%
residual activity (YES1 (human); compound 10.0 µM): 104%
residual activity (EPHB3 (human); compound 10.0 µM): 83%
residual activity (MAP2K1 (human); compound 1.0 µM): 95%
residual activity (MAP2K1 (human); compound 10.0 µM): 75%
residual activity ([1]; compound 1.0 µM): 92%
residual activity ([1]; compound 10.0 µM): 95%
residual activity (MARK4 (human); compound 1.0 µM): 91%
residual activity (MARK4 (human); compound 10.0 µM): 67%
residual activity (CAMKK2 (human); compound 1.0 µM): 28%
residual activity (CAMKK2 (human); compound 10.0 µM): 7%
residual activity (CSNK2A1 (human); compound 1.0 µM): 95%
residual activity (CSNK2A1 (human); compound 10.0 µM): 82%
residual activity (PHKG1 (human); compound 1.0 µM): 23%
residual activity (PHKG1 (human); compound 10.0 µM): 3%
residual activity (INSR (human); compound 1.0 µM): 19%
residual activity (INSR (human); compound 10.0 µM): 2%
SMILES: CCNc1nc(Nc2cc(F)c(C(=O)N3CCOCC3)cc2OC)ncc1C(F)(F)F
